Experimental data taken from US8440674B2, “Substituted pyrimidine compounds as RAF inhibitors and methods of use” (Amgen Inc., priority 2005, dated 2013).
Like-named read-outs stand apart in the source and are kept apart here.

Experiments:
[1] = biological target: recombinant HuBraf V600E (Homo sapiens, UniProt P15056, V600E); assay: B-raf Homogenous Time Resolved Fluorescent (HTRF) kinase assay; type: biochemical; settings: substrate MEK1, 10 uM ATP; threshold lists; read-out: IC50 for the inhibition of B-raf as measured by the HTRF assay
Sequence of recombinant HuBraf V600E (P15056 whole entry V600E): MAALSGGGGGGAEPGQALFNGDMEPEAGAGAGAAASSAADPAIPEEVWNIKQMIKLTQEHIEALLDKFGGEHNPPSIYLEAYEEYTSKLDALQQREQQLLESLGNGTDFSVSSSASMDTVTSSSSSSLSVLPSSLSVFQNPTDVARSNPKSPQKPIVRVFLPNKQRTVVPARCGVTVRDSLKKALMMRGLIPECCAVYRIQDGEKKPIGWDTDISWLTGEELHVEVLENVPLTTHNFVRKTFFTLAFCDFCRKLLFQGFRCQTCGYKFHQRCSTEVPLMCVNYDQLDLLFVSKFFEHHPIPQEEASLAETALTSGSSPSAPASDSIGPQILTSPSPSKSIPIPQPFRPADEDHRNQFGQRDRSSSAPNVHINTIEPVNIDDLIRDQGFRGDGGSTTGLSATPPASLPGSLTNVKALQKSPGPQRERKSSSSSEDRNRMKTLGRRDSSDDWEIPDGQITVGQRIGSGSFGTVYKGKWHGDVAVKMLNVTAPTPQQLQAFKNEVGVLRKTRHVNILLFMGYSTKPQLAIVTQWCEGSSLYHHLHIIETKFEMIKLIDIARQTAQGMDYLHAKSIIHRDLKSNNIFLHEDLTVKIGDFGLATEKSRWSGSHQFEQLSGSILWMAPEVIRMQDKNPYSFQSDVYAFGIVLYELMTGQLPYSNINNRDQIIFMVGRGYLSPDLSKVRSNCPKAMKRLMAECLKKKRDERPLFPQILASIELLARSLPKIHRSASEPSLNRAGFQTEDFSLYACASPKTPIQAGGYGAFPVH
Method: A Homogeneous Time Resolved Fluorescence (HTRF) kinase assay was established to assay the ability of compounds to inhibit human mutant Braf kinase activity on the substrate MEK1. […] The final concentration of the kinase reaction buffer is 50 mM Tris-HCL pH 7.5, 10 mM MgCl2, 0.5% glucose, 0.5 mM DTT, 0.01% BSA.
The detection reaction proceeds for one hour and is read on a RubyStar (BMG Labtech) counter. IC50s for the test compounds are generated using Excel-XLfit software.

[2] = tested on: A375 cells, a human melanoma cell line having the V600E mutant Braf; assay: B-Raf cell-based assay (ratio of phospho-ERK1/2 to total ERK1/2); settings: A-375, 1 h, P-ERK/total ERK, 60 minute incubation, read-out: IC50 for the inhibition of B-raf as measured by the cell-based assay
Method: A cell-based assay was optimized to assay the ability of compounds to inhibit Braf activity in a whole cell context. […] The cell-based assay quantifies the ratio of phospho-ERK1/2 to total ERK1/2 and can thereby assay the cellular inhibition of Braf kinase activity.
A375 cells are plated into 96 well plates and grown to confluence. The cells are then changed into starve media (DMEM/0.1% BSA) for 60 minutes. Compounds in DMSO dose curves are then diluted in starve media and added to cells. […] After a 60 minute incubation the cells are fixed for 20 minutes at room temperature in 4% formaldehyde with 0.1%Triton X-100, protease and phosphatase inhibitors in PBS. The cells are washed four times in PBS then blocked for 60 minutes using a one to one mix of Odyssey blocking buffer (Li-Cor Biosciences, Inc) and PBS. Primary antibodies (rabbit anti-phospho p42/p44 MAPK (P-ERK1/2) from Cell Signaling Technology and mouse anti-ERK2 from Santa Cruz Biotechnology) are diluted in blocking buffer, added to the cells and incubated overnight at 4° C. The cells are then washed four times in PBS/0.1% Tween-20. Secondary antibodies (anti-mouse IRDye 800CW from Rockland, Inc and anti-rabbit AlexaFlour680 from Molecular Probes) are diluted in blocking buffer/0.5% Tween and incubated on cells for 60 minutes. After 4 washes in PBS/0.1% Tween-20 the microplate is scanned on an Odyssey Infrared Imager (Li-Cor Bioscience) which can read the signal given by the two secondary antibodies on their respective channels. The ratio of P-ERK/total ERK is determined and IC50s generated using Excel-XLfit software.

SMILES | IC50 [1] | IC50 ([2]; threshold list) | IC50 ([2]; threshold lists)
CNc1ncc2cc(-c3c(C)ccc4c(Nc5cccc(C(C)(C)C)c5)nccc34)ccc2n1 [Example 28, 6-(1-((3-(1,1-dimethylethyl)phenyl)amino)-6-methyl-5-isoquinolinyl)-N-methyl-2-quinazolinamine] | ≤ 250 nM | ≤ 500 nM | 
CNc1ncc2cc(-c3c(C)ccc4c(Nc5cccc(Cl)c5)nccc34)ccc2n1 [Example 29, 6-(1-((3-chlorophenyl)amino)-6-methyl-5-isoquinolinyl)-N-methyl-2-quinazolinamine] | ≤ 250 nM | ≤ 500 nM | 
CNc1ncc2cc(-c3c(C)ccc4c(Nc5cccc(C#N)c5)nccc34)ccc2n1 [Example 30, 3-((6-methyl-5-(2-(methylamino)-6-quinazolinyl)-1-isoquinolinyl)amino)benzonitrile] | ≤ 250 nM | ≤ 500 nM | 
CNc1ncc2cc(-c3c(C)ccc4c(Nc5cccc(OC(F)(F)F)c5)nccc34)ccc2n1 [Example 32, N-methyl-6-(6-methyl-1-((3-((trifluoromethyl)oxy)phenyl)amino)-5-isoquinolinyl)-2-quinazolinamine] | ≤ 250 nM | ≤ 500 nM | 
CNc1ncc2cc(-c3c(C)ccc4c(Nc5ccc6c(c5)N(C(C)=O)CC6(C)C)nccc34)ccc2n1 [Example 33, 6-(1-((1-acetyl-3,3-dimethyl-2,3-dihydro-1H-indol-6-yl)amino)-6-methyl-5-isoquinolinyl)-N-methyl-2-quinazolinamine] | ≤ 250 nM | ≤ 500 nM | 
CNc1ncc2cc(-c3c(C)ccc4c(Nc5cc(C(F)(F)F)ccn5)nccc34)ccc2n1 [Example 34, N-methyl-6-(6-methyl-1-((4-(trifluoromethyl)-2-pyridinyl)amino)-5-isoquinolinyl)-2-quinazolinamine] | ≤ 250 nM | ≤ 500 nM | 
CNc1ncc2cc(-c3c(C)ccc4c(Nc5ccc(OC)c(C(F)(F)F)c5)nccc34)ccc2n1 [Example 35, N-methyl-6-(6-methyl-1-((4-(methyloxy)-3-(trifluoromethyl)phenyl)amino)-5-isoquinolinyl)-2-quinazolinamine] | ≤ 250 nM | ≤ 500 nM | 
CNc1ncc2cc(-c3c(C)ccc4c(Nc5nnc(C6CC6)s5)nccc34)ccc2n1 [Example 36, 6-(1-((5-cyclopropyl-1,3,4-thiadiazol-2-yl)amino)-6-methyl-5-isoquinolinyl)-N-methyl-2-quinazolinamine] | ≤ 250 nM | ≤ 500 nM | 
CNc1ncc2cc(-c3c(C)ccc4c(Nc5ccc6[nH]ncc6c5)nccc34)ccc2n1 [Example 37, 6-(1-(1H-indazol-5-ylamino)-6-methyl-5-isoquinolinyl)-N-methyl-2-quinazolinamine] | ≤ 250 nM | ≤ 500 nM | 
CNc1ncc2cc(-c3c(C)ccc4c(Nc5ccc6c(c5)CCC6)nccc34)ccc2n1 [Example 38, 6-(1-(2,3-dihydro-1H-inden-5-ylamino)-6-methyl-5-isoquinolinyl)-N-methyl-2-quinazolinamine] | ≤ 250 nM | ≤ 500 nM | 
CNc1ncc2cc(-c3c(C)ccc4c(Nc5ccc6sc(C)nc6c5)nccc34)ccc2n1 [Example 39, N-methyl-6-(6-methyl-1-((2-methyl-1,3-benzothiazol-5-yl)amino)-5-isoquinolinyl)-2-quinazolinamine] | ≤ 250 nM | ≤ 500 nM | 
CNc1ncc2cc(-c3c(C)ccc4c(Nc5ccc(F)c(OC(C)C)c5)nccc34)ccc2n1 [Example 40, 6-(1-((4-fluoro-3-((1-methylethyl)oxy)phenyl)amino)-6-methyl-5-isoquinolinyl)-N-methyl-2-quinazolinamine] | ≤ 250 nM | ≤ 500 nM | 
CNc1ncc2cc(-c3c(C)ccc4c(Nc5cncc(C(F)(F)F)c5)nccc34)ccc2n1 [Example 41, N-methyl-6-(6-methyl-1-((5-(trifluoromethyl)-3-pyridinyl)amino)-5-isoquinolinyl)-2-quinazolinamine] | ≤ 250 nM | ≤ 500 nM | 
CNc1ncc2cc(-c3c(C)ccc4c(Nc5cccc(OC(F)(F)F)c5)ncnc34)ccc2n1 [Example 50, N^2,7′-dimethyl-N^4′-(3-((trifluoromethyl)oxy)phenyl)-6,8′-biquinazoline-2,4′-diamine] | ≤ 250 nM | ≤ 500 nM | 
CNc1ncc2cc(-c3c(C)ccc4c(Nc5cccc(C(F)(F)F)c5)ncnc34)ccc2n1 [Example 51, N^2,7′-dimethyl-N^4′-(3-(trifluoromethyl)phenyl)-6,8′-biquinazoline-2,4′-diamine] | ≤ 250 nM | ≤ 500 nM | 
CNc1ncc2cc(-c3c(C)ccc4c(Nc5ccc(OC)c(C(F)(F)F)c5)ncnc34)ccc2n1 [Example 52, N^2,7′-dimethyl-N^4′-(4-(methyloxy)-3-(trifluoromethyl)phenyl)-6,8′-biquinazoline-2,4′-diamine] | ≤ 250 nM | ≤ 500 nM | 
CNc1ncc2cc(-c3c(C)ccc4c(Nc5cc(C(C)(C)C)nn5C)ncnc34)ccc2n1 [Example 53, N^4′-(3-(1,1-dimethylethyl)-1-methyl-1H-pyrazol-5-yl)-N^2,7′-dimethyl-6,8′-biquinazoline-2,4′-diamine] | ≤ 250 nM | ≤ 500 nM | 
CNc1ncc2cc(-c3c(C)ccc4c(Nc5ccc6c(c5)N(C(C)=O)CC6(C)C)ncnc34)ccc2n1 [Example 54, N^4′-(1-acetyl-3,3-dimethyl-2,3-dihydro-1H-indol-6-yl)-N^2,7′-dimethyl-6,8′-biquinazoline-2,4′-diamine] | ≤ 250 nM | ≤ 500 nM | 
CNc1ncc2cc(-c3c(C)ccc4c(Nc5ccc(Cl)c(C(F)(F)F)c5)ncnc34)ccc2n1 [Example 55, N^4′-(4-chloro-3-(trifluoromethyl)phenyl)-N^2,7′-dimethyl-6,8′-biquinazoline-2,4′-diamine] | ≤ 250 nM | ≤ 500 nM | 
CNc1ncc2cc(-c3c(C)ccc4c(Nc5cncc(C(F)(F)F)c5)ncnc34)ccc2n1 [Example 56, N^2,7′-dimethyl-N^4′-(5-(trifluoromethyl)-3-pyridinyl)-6,8′-biquinazoline-2,4′-diamine] | ≤ 250 nM | ≤ 500 nM | 
CNc1ncc2cc(-c3c(C)ccc4c(NC5CCC(C(C)(C)C)CC5)ncnc34)ccc2n1 (centres unmarked) [Example 57, N^4′-(4-(1,1-dimethylethyl)cyclohexyl)-N^2,7′-dimethyl-6,8′-biquinazoline-2,4′-diamine] | ≤ 250 nM | ≤ 500 nM | ≤ 1000 nM
CNc1ncc2cc(-c3c(C)ccc4c(Nc5ccc6sc(C)nc6c5)ncnc34)ccc2n1 [Example 58, N^2,7′-dimethyl-N^4′-(2-methyl-1,3-benzothiazol-5-yl)-6,8′-biquinazoline-2,4′-diamine] | ≤ 250 nM | ≤ 500 nM | ≤ 1000 nM
CNc1ncc2cc(-c3c(C)ccc4c(Nc5cccc(C(F)(F)F)c5)nn(C)c34)ccc2n1 [Example 63, 6-(1,6-dimethyl-3-((3-(trifluoromethyl)phenyl)amino)-1H-indazol-7-yl)-N-methyl-2-quinazolinamine] | ≤ 250 nM | ≤ 500 nM | 
CNc1ncc2cc(-c3c(C)ccc4c(Nc5ccc(OC)c(C(F)(F)F)c5)nn(C)c34)ccc2n1 [Example 64, 6-(1,6-dimethyl-3-((4-(methyloxy)-3-(trifluoromethyl)phenyl)amino)-1H-indazol-7-yl)-N-methyl-2-quinazolinamine] | ≤ 250 nM | ≤ 500 nM | 
